Assay results: US20220362182A1, “METHODS FOR REVERSING HEPATIC STEATOSIS” (BRIGHTSEED, INC., priority 2020, published 2022)
Entries after “also recorded” stand apart in the source; their conditions may differ. Like-named read-outs stand apart in the source and are kept apart here.

Legend:
[1] = test system: SPNS2 mRNA; experiment: SPNS2 qPCR in T6PNE cells; format: cell-based, human
Protocol: (§1) Quantitative PCR (Q-PCR) from in vitro cell culture experiments used total RNA purified using RNeasy Kits (Qiagen). For liver tissue samples, total RNA was isolated using Trizol (Invitrogen) and prepared for RNAseq (mouse liver DMSO and NCT, N=3). cDNA was amplified using 3 μg of total RNA using qScript cDNA SuperMix (Quanta BioSciences, Beverly, Mass., USA). QPCR analysis was performed using SYBR® Select Master Mix (Applied Biosystems) and ABI 7900HT (Applied Biosystems, Thermo Fisher Scientific). The Ct values of mRNA expression were then normalized to the 18 s rRNA values and are expressed as fold change over samples from mice fed normal chow for in vivo experiments or DMSO controls for cell culture experiments.

[2] = test system: HNF4a mRNA; experiment: HNF4a mRNA in primary human hepatocytes; format: cell-based; settings: high fat media, 5, 15, 40 µM, Day 4 to Day 10
Protocol: (§2) Experiments with primary human hepatocytes were performed by CN-Bio (Cambridge, UK). Primary human hepatocytes (PHHs), human Kupffer cells (HKs) and human stellate cells (HSCs) were seeded onto CN-Bio's PhysioMimix LC12 MPS culture plates at 6×10^5 cells for PHHs and 6×10^4 cells for HKs and HSCs in 1.6 ml of CN-Bio's HEP-lean media with 5% FCS. Throughout the experiment the cells were maintained at a flow rate of 1 μl/s. After 24 h (Day 1) of seeding, the media was changed to HEP-lean media and the cells were incubated until day 4 to allow the cells to form microtissues. At day 4 post seeding, media was changed to HEP-fat media and treated with DMSO or NCT (5, 15, 40 μM). Media was replaced on days 6 and 8. Cells were harvested on day 10 for RNA extraction. Data are presented as mean ±SEM of three or more samples as indicated. Statistical significance was assessed using Student's t-test, ANOVA or R^2 coefficient of correlation.

[3] = test system: CYP26A1 mRNA; experiment: CYP26a1 mRNA in primary human hepatocytes; format: cell-based; settings: high fat media, 5, 15, 40 µM, Day 4 to Day 10
Protocol: as §2

[4] = test system: dihydroceramides; experiment: lipidomic analysis of ceramides and dihydroceramides in T6PNE cells; format: cell-based, human; settings: 2 days after treatment
Protocol: (§3) Ceramides and dihydroceramides were measured in the UCSD Lipidomics Core Facility as previously described (Quehenberger et al.). Briefly, samples were extracted using the butanol: methanol (BUME) method. The lipid layer was collected and run on a Thermo-Vanquish UPLC (Thermo Scientific) with a Cortecs T3 (C18), 2.1 mm×150 mm; 1.8 uT3 column and a binary solvent system. Mass spectrometry employed a Thermo Q Exactive instrument with MS/MS data dependent acquisition scan mode and LipidSearch software (Thermo Fisher Scientific).

[5] = target: T1, HNF4α (Mus musculus, UniProt P49698); experiment: hepatic HNF4α expression in DIO mice; format: in vivo; settings: 200 mg/kg bid IP, 14 days; for hepatic HNF4α protein (nuclear staining): 200 mg/kg
T1 construct: from tissue; host or cells: liver of C57BL/6 J DIO male mice
T1 sequence (P49698 1-474): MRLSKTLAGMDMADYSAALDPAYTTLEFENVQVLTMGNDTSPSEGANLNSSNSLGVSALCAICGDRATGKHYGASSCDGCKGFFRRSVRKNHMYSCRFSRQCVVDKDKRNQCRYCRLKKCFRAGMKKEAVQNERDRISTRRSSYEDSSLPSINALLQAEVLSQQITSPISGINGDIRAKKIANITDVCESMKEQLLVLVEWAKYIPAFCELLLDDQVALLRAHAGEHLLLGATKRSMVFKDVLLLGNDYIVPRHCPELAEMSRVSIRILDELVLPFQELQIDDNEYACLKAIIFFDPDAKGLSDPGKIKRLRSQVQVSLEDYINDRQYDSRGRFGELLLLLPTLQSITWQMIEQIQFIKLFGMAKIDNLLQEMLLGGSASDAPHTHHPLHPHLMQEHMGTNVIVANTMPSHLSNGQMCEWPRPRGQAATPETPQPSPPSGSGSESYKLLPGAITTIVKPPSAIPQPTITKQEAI
Protocol: as §1
For dose response experiments, mice were injected intraperitoneally with 10% DMSO as vehicle control or 4 different doses of NCT (30, 60, 120 and 240 mg/kg of body weight) dissolved in 10% DMSO. Mice received 2 doses per day with a 5 h interval between injections for 3 days. To test the effect of NCT (Sundia MediTech Company, Ltd., Custom synthesis), 200 mg/kg was injected IP bid for 14 days. On day 15, mice received a final dose of NCT followed by IP injection with 3 g/kg dextrose. One h later, blood samples were collected and mice were euthanized using pentobarbital. Total mouse, liver and epididymal fat pad weights were measured. Dissected liver samples were washed in cold PBS, cut into small pieces and distributed for analyses. For RNA isolation and ELISA, liver samples were snap frozen using liquid nitrogen and stored at −80° C. […]
Frozen liver sections were permeabilized using 0.3% Triton-X and incubated in antigen retrieval solution (Antigen retrieval citrate, Biogenex) at sub boiling temperature for 10 min. […] Slides were mounted using fluorescence mounting medium and images were obtained at 40× magnification using an Olympus IX71 fluorescence microscope. Fluorescence intensity of HNF4α-stained nuclei was calculated using MetaMorph TL software (version 7.6.5.0, Olympus).

[6] = test system: dihydroceramides; experiment: lipidomic analysis of livers from mice injected IP; format: in vivo, mouse; settings: livers from mice injected IP for 2 weeks
Protocol: as §3

[7] = format: in vivo; settings: mice, 30, 60, 120 and 240 mg/kg bid for 3 days, IP
Protocol: For dose response experiments, mice were injected intraperitoneally with 10% DMSO as vehicle control or 4 different doses of NCT (30, 60, 120 and 240 mg/kg of body weight) dissolved in 10% DMSO. Mice received 2 doses per day with a 5 h interval between injections for 3 days. To test the effect of NCT (Sundia MediTech Company, Ltd., Custom synthesis), 200 mg/kg was injected IP bid for 14 days. On day 15, mice received a final dose of NCT followed by IP injection with 3 g/kg dextrose. One h later, blood samples were collected and mice were euthanized using pentobarbital. Total mouse, liver and epididymal fat pad weights were measured. Dissected liver samples were washed in cold PBS, cut into small pieces and distributed for analyses. For RNA isolation and ELISA, liver samples were snap frozen using liquid nitrogen and stored at −80° C. For histomorphometry and immunofluorescence analysis, liver samples were fixed in 4% of cold PFA and processed for histology. All animal experiments were approved by the Institutional Animal Care and Use Committee (IACUC) of the Sanford Burnham Prebys Medical Discovery Institute in accordance with national regulations.
Having established that NCT reduces the level of stored fat in cells in vitro, it was of interest to determine its effect in vivo. […]

[8] = listed as N-trans-caffeoyltyramine

## O=C(/C=C/c1ccc(O)c(O)c1)NCCc1ccc(O)cc1 [NCT, N-trans-caffeoyltyramine]
[1]
  SPNS2 expression (mRNA): induced SPNS2 expression
[1]; [8]
  SPNS2 expression (mRNA): induced the expression
[2]
  HNF4a mRNA: significantly induced
[3]
  CYP26a1 mRNA: induced CYP26a1; also recorded: significantly induced
[4]
  dihydroceramide production: multiple dihydroceramides were increased; also recorded: induced multiple identical dihydroceramides
[4]; [8]
  dihydroceramide production: Dihydroceramide was induced
[5]
  hepatic HNF4α mRNA: reversed the loss
  hepatic HNF4α protein (nuclear staining): reversed the loss of HNF4α protein; also recorded: recovery of normal hepatic HNF4α expression
[5]; [8]
  hepatic HNF4α protein (nuclear staining): reversed that reduction; also recorded: increased the HNF4a staining
[6]
  decrease in ceramide/dihydroceramide ratio in liver: evident as well
[7]
  tolerability: well tolerated
